Test [1] has as its target T1, bmMTHFD (Bombyx mori, UniProt H9IYM1, S46A).
T1 construct: gene method; full-length ORF (906 bp, 301 residues, 32 733 Da), pET-15b (NdeI/BamHI); homodimer ~63 kDa; cDNA from larval fat body
Description: endpoint absorbance at […] nm, Michaelis-Menten fit. In kind it is biochemical. To be noted: dehydrogenase activity, 20 mM sodium phosphate pH 6.5, 30 mM 2-mercaptoethanol, 28 °C.

Test [2] has as its target T2, bmMTHFD (Bombyx mori, UniProt H9IYM1).
T2 construct: gene method; full-length ORF (906 bp, 301 residues, 32 733 Da), pET-15b (NdeI/BamHI); homodimer ~63 kDa; cDNA from larval fat body
T2 sequence (H9IYM1 1-301): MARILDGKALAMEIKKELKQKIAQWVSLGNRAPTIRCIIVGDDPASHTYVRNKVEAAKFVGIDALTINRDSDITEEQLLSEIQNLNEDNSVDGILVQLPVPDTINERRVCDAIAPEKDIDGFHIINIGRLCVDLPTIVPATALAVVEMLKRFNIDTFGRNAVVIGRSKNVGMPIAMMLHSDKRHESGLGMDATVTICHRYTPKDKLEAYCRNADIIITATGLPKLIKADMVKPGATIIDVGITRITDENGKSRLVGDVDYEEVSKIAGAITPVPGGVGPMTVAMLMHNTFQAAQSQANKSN
Description: endpoint absorbance at […] nm, Michaelis-Menten fit. The test is classed as biochemical. As to conditions: dehydrogenase activity, 20 mM sodium phosphate pH 6.5, 30 mM 2-mercaptoethanol, 28 °C.

Test [3] concerns the target T3, bmMTHFD (Bombyx mori, UniProt H9IYM1, Q97A).
T3 construct: gene method; full-length ORF (906 bp, 301 residues, 32 733 Da), pET-15b (NdeI/BamHI); homodimer ~63 kDa; cDNA from larval fat body
Description: endpoint absorbance at […] nm, Michaelis-Menten fit. To be noted: dehydrogenase activity; NADP+ as cofactor; 20 mM sodium phosphate pH 6.5, 30 mM 2-mercaptoethanol, 28 °C. The test is classed as biochemical.

The target in test [4] is T4, bmMTHFD (Bombyx mori, UniProt H9IYM1, K53A).
T4 construct: gene method; full-length ORF (906 bp, 301 residues, 32 733 Da), pET-15b (NdeI/BamHI); homodimer ~63 kDa; cDNA from larval fat body
T4 sequence (H9IYM1 entry or part of it K53A): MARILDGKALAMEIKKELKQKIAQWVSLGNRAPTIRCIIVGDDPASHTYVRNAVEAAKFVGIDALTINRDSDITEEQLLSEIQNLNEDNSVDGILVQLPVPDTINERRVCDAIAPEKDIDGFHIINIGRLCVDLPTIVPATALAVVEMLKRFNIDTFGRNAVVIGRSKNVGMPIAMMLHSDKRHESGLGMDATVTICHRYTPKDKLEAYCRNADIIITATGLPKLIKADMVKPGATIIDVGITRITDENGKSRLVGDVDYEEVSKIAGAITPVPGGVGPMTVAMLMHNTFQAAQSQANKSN
As to the kind of experiment: endpoint absorbance at […] nm, Michaelis-Menten fit. In kind it is biochemical. To be noted: dehydrogenase activity, 20 mM sodium phosphate pH 6.5, 30 mM 2-mercaptoethanol, 28 °C.

Test [5] deals with T5, bmMTHFD (Bombyx mori, UniProt H9IYM1, D120A).
T5 construct: gene method; full-length ORF (906 bp, 301 residues, 32 733 Da), pET-15b (NdeI/BamHI); homodimer ~63 kDa; cDNA from larval fat body
T5 sequence (H9IYM1 entry or part of it D120A): as the sequence (H9IYM1 entry or part of it K53A) above, with A53K, D120A counted along it
Description: endpoint absorbance at […] nm, Michaelis-Menten fit. The test is classed as biochemical. To be noted: dehydrogenase activity; MTHF as co-substrate; 20 mM sodium phosphate pH 6.5, 30 mM 2-mercaptoethanol, 28 °C.

Test [6] deals with T2, bmMTHFD. As to the kind of experiment: decrease in absorption at […] nm, Michaelis-Menten fit. In kind it is biochemical. As to conditions: cyclohydrolase activity; 0.1 M potassium maleate pH 7.4, 0.02 M 2-mercaptoethanol, 30 °C.
For test [7], the target named is T4, bmMTHFD. The description is as above. In kind it is biochemical. As to conditions: cyclohydrolase activity; 0.1 M potassium maleate pH 7.4, 0.02 M 2-mercaptoethanol, 30 °C.
Test [8] concerns the target T3, bmMTHFD. The test is described as above. In kind it is biochemical. To be noted: cyclohydrolase activity; 0.1 M potassium maleate pH 7.4, 0.02 M 2-mercaptoethanol, 30 °C.
Test [9] addresses T5, bmMTHFD. The description is as above. In kind it is biochemical. To be noted: cyclohydrolase activity; 0.1 M potassium maleate pH 7.4, 0.02 M 2-mercaptoethanol, 30 °C.
Test [10] concerns the target Bombyx mori 5,10-methylenetetrahydrofolate dehydrogenase (Bombyx mori). As to the kind of experiment: SEC; Superdex 200 analytical gel filtration, calibrated with protein standards (thyroglobulin, globulin, ovalbumin, myoglobin); bmMTHFD eluted at 205 mL, corresponding to 63 kDa. (In general: Size exclusion chromatography separates by hydrodynamic size, large species first.)

In general, stoichiometry N refers to a count of units in the complex or per binding partner.

T1 sequence (H9IYM1 entry or part of it S46A): as the sequence (H9IYM1 entry or part of it K53A) above, with S46A, A53K counted along it
T3 sequence (H9IYM1 entry or part of it Q97A): as the sequence (H9IYM1 entry or part of it K53A) above, with A53K, Q97A counted along it

In the case of `Nc1nc2c(c(=O)[nH]1)N1CN(c3ccc(C(=O)N[C@@H](CCC(=O)O)C(=O)O)cc3)C[C@H]1CN2` [MTHF], the S46A on bmMTHFD [1] (NADP+ as cofactor) was 0.19 (± 4.8 × 10^−3) mM. The WT at bmMTHFD [2] (NADP+ as cofactor) was 0.51 (± 3.3 × 10^−2) mM. Besides, on bmMTHFD [3], the Q97A is recorded as 0.81 (± 2.8 × 10^−2) mM. Further, the K53A at bmMTHFD [4] (NADP+ as cofactor) is listed as 1.1 (± 1.8 × 10^−2) mM.

With `NC(=O)c1ccc[n+]([C@@H]2O[C@H](COP(=O)(O)OP(=O)(O)OC[C@H]3O[C@@H](n4cnc5c(N)ncnc54)[C@H](O)[C@@H]3O)[C@@H](O)[C@H]2O)c1` [NAD^+], on bmMTHFD [2] (MTHF as co-substrate), the WT was 0.27 (± 2.0 × 10^−2) mM. Further, the D120A at bmMTHFD [5] is reported as 2.0 (± 9.0 × 10^−2) mM.

Regarding `NC(=O)c1ccc[n+]([C@@H]2O[C@H](COP(=O)(O)OP(=O)(O)OC[C@H]3O[C@@H](n4cnc5c(N)ncnc54)[C@H](OP(=O)(O)O)[C@@H]3O)[C@@H](O)[C@H]2O)c1` [NADP^+], the S46A on bmMTHFD [1] (MTHF as co-substrate) was 0.98 (± 1.3 × 10^−1) mM. Also, the WT on bmMTHFD [2] (MTHF as co-substrate) is on record as 0.22 (± 1.0 × 10^−2) mM. Further, the K53A at bmMTHFD [4] (MTHF as co-substrate) is recorded as 0.62 (± 6.5 × 10^−2) mM. Further, the D120A on bmMTHFD [5] is 2.0 (± 1.4 × 10^−1) mM.

`Nc1nc2c(c(=O)[nH]1)[N+]1=CN(c3ccc(C(=O)N[C@@H](CCC(=O)O)C(=O)O)cc3)C[C@H]1CN2` [5,10-methenyl-THF]: on bmMTHFD [6], the WT is given as 0.13 (± 6.0 × 10^−3) mM. For the same molecule, the K53A at bmMTHFD [7] is recorded as 0.16 (± 1.5 × 10^−2) mM. The Q97A at bmMTHFD [8] was 0.019 (± 2.5 × 10^−3) mM. The D120A at bmMTHFD [9] is 0.23 (± 2.5 × 10^−2) mM.

As to “Bombyx mori 5,10-methylenetetrahydrofolate dehydrogenase (enzyme)”, the stoichiometry N in [10] amounted to 2.
